Results published in patent US8338568B2, “Chimeric PCSK9 proteins, cells comprising same, and assays using same” (Adaerata, Limited Partnership, priority 2006, dated 2012).

What was measured:
[1] = molecular target: T1, Furin (Homo sapiens, UniProt P09958); test: Cleavability of PCSK9 mutants by Furin in HEK293 cells (pulse-labelling, V5 immunoprecipitation); assay type: cell-based; conditions: for processing by co-expressed Furin: co-transfection with Furin, FIG. 8; for processing at Arg218 by endogenous Furin: 5 h pulse-labelling, FIG. 9
T1 construct: endogenous in cells; host or cells: HEK293
Description: Twenty four hours following the co-transfection of the PCSK9 natural mutants and each PC or with an empty vector control (pIRES). The cells were labeled with [^35S] [Met+Cys] for 5 h (P5h) and the cell lysates (Cells) and media analyzed as in FIG. 7. The stars point to lanes where either processing occurred (Furin and PC5A) or was inhibited by the presence of the mutation (R^218S with furin). Cleavage sites GTRFHS^218↓QA (SEQ ID NO: 17); GTRLHR^218↓QA (SEQ ID NO: 18);
[Met+Cys] as described in FIG. 7. The star emphasizes the effectiveness of the RRRR218EL (SEQ ID NO: […]) mutant to allow the complete processing of PCSK9 into the PCSK9-ΔN218 form by endogenous Furin. PCSK9 amino acid sequence in the vicinity of position 218 RFHR218QA (SEQ ID NO: 4) (WT); RFHR218EA (SEQ ID NO: 6) (Q219E); RFHR218EL (SEQ ID NO: 7) (QA219,220EL); RRRR218EL (SEQ ID NO: 5);
Was next tested the hypothesis that cleavage at Arg218 is performed by one or more basic amino acid PCs. Accordingly, wild type PCSK9 was co-expressed with all the convertases as well as with β-secretase BACE1 in HEK293 cells. Cells transiently transfected with vectors expressing hPCSK9-V5 and/or the different convertases (as indicated at the top of lanes) were pulse-labeled with ^35S-(Met+Cys) for 4 h and cell extracts (Cells) and media (Media) were immunoprecipitated with a V5 antibody and the precipitates were resolved by SDS/PAGE. […] The N-terminally truncated N2 product is thus referred to as PCSK9-ΔN218 (SEQ ID NO: 32) (PCSK9 lacking the first 218 amino acids; FIG. 5). […] The R218S mutation abrogates the Furin/PC5A cleavage at the sequence RFHR218.
Based on the crystal structure of Furin (Henrich et al., 2003) and the analysis of its many substrates (Seidah and Chretien, 1999), the best substrates of Furin would have the motif RX(R/K)R↓(E/D)L (SEQ ID NO: 115). This led the applicants to produce mutants of PCSK9 that should greatly enhance the ability of Furin to process this molecule. […] Notice the almost absence of prosegment co-immunoprecipitating with the PCSK9-ΔN218 form produced (FIG. 9), which would be predicted since such cleavage would remove the PCSK9 segment 153-218 (SEQ ID NO: 31), which contains the active site Asp^186.

[2] = tested on: LDLR; test: Western blot of endogenous LDLR level in HuH7 cells transiently transfected with PCSK9 constructs; assay type: cell-based, human; conditions: compared to pIRES empty vector, FIG. 10
Description: Cells expressed either full length PCSK9 (FL-PCSK9), namely wild type sequence (WT), mutated R218S, RRRREL (SEQ ID NO: 5) or active site H226A; a truncated PCSK9 construct with the Cys/His rich domain (signal peptide fused to amino acid 455-692 of PCSK9 and ending with a V5 tag) (CHRD) or the empty vector control (pIRES-2). The levels of β-actin was used as control, as well as the level of PCSK9 intracellular proteins produced (detected by a V5-mAb);
Accordingly, the activity on the degradation of LDLR of wild type PCSK9, its R218S mutant, the RRRR218EL (SEQ ID NO: 5) variant, the active site mutant H226A and the Cys/His-rich domain of PCSK9 (aa 454-692 CHRD) was analyzed by Western blots in HuH7 cells (Benjannet et al., 2004) (FIG. 10).

[3] = tested on: LDLR; test: Western blot of overexpressed LDLR in CHOK1 cells co-transfected with PCSK9 constructs; assay type: cell-based; conditions: overexpressed receptor, transient co-transfection; FIG. 13
Description: (§1) The triangle indicates the position in the gel of respectively ApoER2 (first panel), VLDLR (second panel) and LDLR (third panel). […] The PCSK9 Y38F is a mutant where the Tyr-sulfation of the prosegment is eliminated. The intracellular levels of PCSK9 (detected by a specific in-house polyclonal antibody made in rabbits against human PCSK9) are shown in the corresponding cell lysates in the lower panels;

[4] = tested on: ApoER2; test: Western blot of overexpressed ApoER2 in cells co-transfected with PCSK9 constructs; assay type: cell-based; conditions: for degradation of ApoER2: overexpressed receptor, transient co-transfection, FIGS. 13 and 14
Description: as §1
The intracellular levels of PCSK9 (detected by a specific in house antibody against human PCSK9) are shown in the bottom panels;

[5] = tested on: VLDLR; test: Western blot of overexpressed VLDLR in CHOK1 cells co-transfected with PCSK9 constructs; assay type: cell-based; conditions: overexpressed receptor, transient co-transfection; FIG. 13
Description: as §1

[6] = tested on: LDLR; test: Western blot of LDLR level in HEK293 cells co-transfected with LDLR and PCSK9 or PCSK9-TM-CT chimera; assay type: cell-based, human; conditions: HEK293 cells co-transfected with LDLR; compared to wild type PCSK9; FIG. 4
Description: (§2) Note that NH4Cl allows the rescue from degradation of an intermediate immunoreactive ˜105 kDa form of LDLR that is likely found in endosomes. The pIRES lanes represent the empty vector pIRES-2 either alone or co-transfected with LDLR (as indicated at the bottom of the panel) as controls;
as §2, with “HEK293 cells were transiently transfected with different PCSK9-chimera constructions (Benjannet et al., 2004). […] Cells were either treated (+) or not (−) with 5 mM NH4Cl for 24 h. Note” for “Note”, “controls.” for “controls;”

[7] = tested on: VLDLR; test: Transgenic mice overexpressing PCSK9-V5 in hepatocytes: VLDLR in skeletal muscle, circulating LDL-cholesterol; assay type: in vivo, mouse
Description: The transgenic protein was tagged with a V5 at its C-terminus to differentiate it from the endogenous one. […] This is the first evidence that circulating PCSK9 can enhance the degradation of VLDLR in vivo and at distant sites away from those of its synthesis.
Immunohistochemistry of VLDLR (red) in skeletal mouse muscles of control Pcsk9+/+, Pcsk9−/− (Pcsk9 knockout) and transgenic mice (Tg-hPcsk9-V5). The nuclei were stained using TO-PRO-3 (blue; invitrogen). scale: […]; and
A transgenic mice specifically overexpressing PCSK9 in hepatocytes was generated. The transgene was under the control of the ApoE promoter and enhancer regulation. […] The transgenic protein was tagged with a V5 at its c-terminus to differentiate it from the endogenous one. […] Immunofluorescence and Confocal Microscopy analyses of the skeletal mouse muscles were performed using a rabbit polyclonal Ab:VLDLR (a74; 1:200). Immunofluorescence analyses were performed with a Zeiss™ LSM-510 confocal microscope. Confocal immunofluorescence microscopy was performed with a Nikon Eclipse™ TE2000-U laser-scanning microscope with 408, 488, and 543-nm laser lines. Images were processed with Adobe Photoshop™ CS2, version 9.0 (Adobe Systems). […] This is the first evidence that circulating PCSK9 can enhance the degradation of VLDLR in vivo. The decrease level of VLDLR in the transgenic mice overexpressing PCSK9 in the liver was also confirm by immunodetection of PCSK9 in extracts of skeletal muscle (see FIG. 21).

[8] = tested on: basic aa-specific PCs; test: Inhibition of PC processing of overexpressed human PCSK9 in HEK293 cells (pulse-labelling, V5 immunoprecipitation); assay type: cell-based; conditions: co-expression with PCSK9 in HEK293 cells; FIG. 7
Description: Twenty four hours following the co-transfection of PCSK9 with a PC or with an empty vector control (the pIRES-2 vector from Invitrogen), the cells were labeled with [^35S] [Met+Cys] for 4 h (P4h). The cell lysates (Cells) and media were immunoprecipitated with a V5-mAb and the immunoprecipitates resolved by SDS-PAGE, as described (Seidah et al., 2003). sFurin represents the soluble form of furin lacking the transmembrane-cytosolic tail (Decroly et al., 1996). The stars point to lanes where either processing occurred (with Furin and PC5A) or was inhibited (α1-PDX). From now on, N2 is defined herein as the N-terminal 218 amino acid truncated PCSK9 product (PCSK9-ΔN218). The pIRES lanes represent the empty vector pIRES-2 either alone or co-transfected with PCSK9 (as indicated at the bottom of the panel) as controls;
Was next tested the hypothesis that cleavage at Arg218 is performed by one or more basic amino acid PCs. Accordingly, wild type PCSK9 was co-expressed with all the convertases as well as with β-secretase BACE1 in HEK293 cells. Cells transiently transfected with vectors expressing hPCSK9-V5 and/or the different convertases (as indicated at the top of lanes) were pulse-labeled with ^35S-(Met+Cys) for 4 h and cell extracts (Cells) and media (Media) were immunoprecipitated with a V5 antibody and the precipitates were resolved by SDS/PAGE. […]

T1 sequence (P09958 108-794): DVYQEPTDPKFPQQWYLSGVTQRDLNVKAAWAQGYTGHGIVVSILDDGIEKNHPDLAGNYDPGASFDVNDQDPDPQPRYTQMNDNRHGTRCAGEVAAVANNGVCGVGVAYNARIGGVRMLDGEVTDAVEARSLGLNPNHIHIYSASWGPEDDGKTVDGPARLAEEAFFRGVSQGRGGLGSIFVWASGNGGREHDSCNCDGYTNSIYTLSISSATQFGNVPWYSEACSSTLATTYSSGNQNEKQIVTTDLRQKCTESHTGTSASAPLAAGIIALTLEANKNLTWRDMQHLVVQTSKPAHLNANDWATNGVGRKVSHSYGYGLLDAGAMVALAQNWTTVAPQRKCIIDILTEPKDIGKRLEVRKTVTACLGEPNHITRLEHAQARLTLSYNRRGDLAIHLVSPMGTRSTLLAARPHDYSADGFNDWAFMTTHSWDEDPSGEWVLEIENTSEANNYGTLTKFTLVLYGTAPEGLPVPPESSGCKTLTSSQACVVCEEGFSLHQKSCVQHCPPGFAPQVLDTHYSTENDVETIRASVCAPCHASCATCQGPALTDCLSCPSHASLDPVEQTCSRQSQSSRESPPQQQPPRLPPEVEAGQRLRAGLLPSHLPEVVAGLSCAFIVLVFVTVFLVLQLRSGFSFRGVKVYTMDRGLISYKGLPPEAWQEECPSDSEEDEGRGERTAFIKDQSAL

Which “processing by co-expressed Furin” value [1] does the source give for “R218S: natural PCSK9 mutant Arg218-to-Ser, hypercholesterolemia-associated, Furin/PC5A-resistant” here?
Its value is “can no longer process”.

And the “activity in enhancing the degradation of the LDLR” value (“activity” below) [2]?
The value was “active in enhancing the degradation of the LDLR”.

For “PCSK9-ΔN218: C-terminal fragment of the furin/PC5-cleaved PCSK9 (219-692), SEQ ID NO: 32”, which “activity” value [2] is on record?
The value was “inactive form of PCSK9”.

For “PCSK9-[TM-CT of Lamp1]: chimera of full-length human PCSK9 (1-692) fused to the transmembrane and cytosolic domains of Lamp1, SEQ ID NO: 24”, which “degradation of LDLR” value [3] is on record?
The value was “highest efficacy of degradation”.

And the “level of ApoER2” value ([4]; CHOK1, Neuro2A, HuH7 and HEKL293 cells, FIG. 14)?
The value was “significantly decreased the level of ApoER2 in all cells tested”.

And the “degradation of ApoER2” value [4]?
The value was “highest efficacy of degradation”.

What about the “degradation of VLDLR” value [5] of the same molecule?
Its value is “highest efficacy of degradation”.

And the “degradation of LDLR” value [6]?
The value was “more powerful chimera to enhance the degradation of the LDLR”.

For “F216L: natural PCSK9 mutant Phe216-to-Leu, hypercholesterolemia-associated”, which “processing by co-expressed Furin” value [1] is on record?
Its value is “cleaves to a lesser extent”.

“RFHR218↓EA: PCSK9 mutant with motif RFHR218EA (SEQ ID NO: 6)” was tested. Which “processing at Arg218 by endogenous Furin” value [1] did it give?
Its value is “intermediate Furin-cleavability”.

How did the “degradation of ApoER2” value [4] turn out when “wild type PCSK9: human full-length PCSK9 (1-692), SEQ ID NO: 21” was run?
The value was “degraded”.

What about the “activity” value [2] of the same molecule?
The value was “active in enhancing the degradation of the LDLR”.

And the “degradation of VLDLR” value [5]?
Its value is “degraded”.

What does the source list for “PCSK9-V5: transgenic PCSK9 tagged with V5 at its C-terminus, overexpressed in mouse hepatocytes”?
circulating LDL-Cholesterol ([7]; transgenic mice overexpressing PCSK9 in hepatocytes): quite elevated; level of VLDLR in skeletal muscle ([7]; transgenic mice versus control littermates, immunofluorescence, FIG. 21): dramatically decreased; decrease of VLDLR level in muscle ([7]; transgenic mice versus non-transgenic control littermates): at least 3 fold

For “α1-PDX: modified serpin which inhibits most of the basic aa-specific PCs”, which “inhibition of processing of PCSK9 into PCSK9-ΔN218” value [8] is on record?
Its value is “completely inhibits such processing into PCSK9-ΔN218”.

Which “activity” value [2] does the source give for “H226A: active site mutant of PCSK9, an inactive enzyme form that remains as zymogen in the ER [reference compound]” here?
Its value is “inactive”.

With “PCSK9-[TM-CT of ACE2]: chimera of full-length human PCSK9 (1-692) fused to the transmembrane and cytosolic domains of ACE2, SEQ ID NO: 27” as the molecule, how does the “degradation of LDLR” value [6] read?
Its value is “much more effective than the wild type (WT) PCSK9”.

How did the “degradation of LDLR” value [6] turn out when “PCSK9-[TM-CT of LDLR]: chimera of full-length human PCSK9 (1-692) indirectly fused to the transmembrane and cytosolic domains of LDLR, SEQ ID NO: 20” was run?
The value was “much more effective than the wild type (WT) PCSK9”.

“RFHR218↓EL: PCSK9 mutant with motif RFHR218EL (SEQ ID NO: 7)” was tested. Which “processing at Arg218 by endogenous Furin” value [1] did it give?
Its value is “intermediate Furin-cleavability”.

Which results are given for “RRRR^218EL: PCSK9 variant with wild type RFHR218QA replaced by optimal Furin-recognition sequence RRRR218EL (SEQ ID NO: 5)”?
processing at Arg218 by endogenous Furin [1]: completely process; activity in enhancing the degradation of the LDLR [2]: inactive

B1: CHRD: truncated PCSK9 construct: signal peptide fused to the Cys/His rich domain (amino acid 455-692) with V5 tag (protein)
chain: LFCRTVWSAHSGPTRMATAVARCAPDEELLSCSSFSRSGKRRGERMEAQGGKLVCRAHNAFGGEGVYAIARCCLLPQANCSVHTAPPAEASMGTRVHCHQQGHVLTGCSSHWEVEDLGTHKPPVLRPRGQPNQCVGHREASIHASCCHAPGLECKVKEHGIPAPQEQVTVACEEGWTLTGCSALPGTSHVLGAYAVDNTCVVRSRDVSTTGSTSEGAVTAVAICCRSRHLAQASQELQ
modifications: left off: small tags and cut ends
notes: truncated PCSK9 construct: signal peptide fused to the Cys/His rich domain (amino acid 455-692) with V5 tag
For B1, which “activity” value [2] is on record?
The value was “inactive”.
